From patent US12350259B2, “Methods of treating migraine” (Allergan Pharmaceuticals International Limited, priority 2021, dated 2025)
Where two headings read alike, the source gives them in different places.

Experiments:
OAT1 = OAT1 (Homo sapiens, UniProt Q4U2R8); assay: Transporter substrate; format: in vitro ADME
[1] = Hepatic impairment study: atogepant plasma PK; format: in vivo, human; conditions: for AUC(0-t) / AUC(0-inf) / Cmax / Tmax / half-life / Vd/F: human, plasma, 60 mg; for Vd/F: read-out: Vz/F
Description: A multicenter, non-randomized, open-label, parallel-group, single-dose study was carried out to evaluate the PK, safety, and tolerability profiles of atogepant in participants with impaired hepatic function and matched healthy participants with normal hepatic function after a single 60-mg oral dose of atogepant. The primary outcome measures were PK parameters of atogepant derived from plasma concentrations. Safety measures were AEs, clinical laboratory determinations, vital sign parameters, electrocardiographic results, and physical examination findings. […] PK blood samples were collected for up to 72 hours after dose administration. The total duration of study participation for each participant was 5 days (Day −1 to Day 4), excluding the screening visit. […] Participants with moderate hepatic impairment were enrolled after 4 participants with mild hepatic impairment completed the study; participants with severe hepatic impairment were enrolled after 4 participants with moderate hepatic impairment completed the study. Participants with normal hepatic function were recruited after all patients with hepatic impairment were enrolled in the study. The safety and tolerability of atogepant was established in each group before the subsequent group was enrolled. Participants were enrolled into four groups: Group I (Mild Hepatic Impairment); Group II (Moderate Hepatic Impairment); Group III (Severe Hepatic Impairment); and Group IV (Normal Hepatic Impairment). Participants with normal hepatic function were recruited after the participants with hepatic impairment were enrolled in the study so that participants could be matched as closely as possible by age range, weight range, and gender among groups. Participants were matched specifically according to rage range, not exceeding 5 years between the means of the normal group and the 3 impaired hepatic function groups combined; weight range, which deviated <20% between the means of the normal group and the 3 impaired hepatic function groups combined; and gender, as much as possible to match the ratio of the normal group to the 3 impaired hepatic function groups combined. Participants received a single, oral, 60 mg tablet of atogepant. Each participant received only one dose of the study intervention. Participants received the atogepant tablet with 240 mL of water at the study center under fasted conditions. Following dose administration, participants continued their fast and remained seated upright and awake for 4 hours. Sampling for atogepant plasma concentrations was done starting on Day 1 at 0 hour (predose) and at 0.5, 1, 1.5, 2, 3, 4, 6, 8, 12, 16, 24, 36, 48, and 72 hours post dose.

BCRP = BCRP (Homo sapiens, UniProt Q9UNQ0); assay: Transporter inhibition; format: in vitro ADME; conditions: clinically relevant concentrations
Chain of BCRP (Q9UNQ0 whole entry): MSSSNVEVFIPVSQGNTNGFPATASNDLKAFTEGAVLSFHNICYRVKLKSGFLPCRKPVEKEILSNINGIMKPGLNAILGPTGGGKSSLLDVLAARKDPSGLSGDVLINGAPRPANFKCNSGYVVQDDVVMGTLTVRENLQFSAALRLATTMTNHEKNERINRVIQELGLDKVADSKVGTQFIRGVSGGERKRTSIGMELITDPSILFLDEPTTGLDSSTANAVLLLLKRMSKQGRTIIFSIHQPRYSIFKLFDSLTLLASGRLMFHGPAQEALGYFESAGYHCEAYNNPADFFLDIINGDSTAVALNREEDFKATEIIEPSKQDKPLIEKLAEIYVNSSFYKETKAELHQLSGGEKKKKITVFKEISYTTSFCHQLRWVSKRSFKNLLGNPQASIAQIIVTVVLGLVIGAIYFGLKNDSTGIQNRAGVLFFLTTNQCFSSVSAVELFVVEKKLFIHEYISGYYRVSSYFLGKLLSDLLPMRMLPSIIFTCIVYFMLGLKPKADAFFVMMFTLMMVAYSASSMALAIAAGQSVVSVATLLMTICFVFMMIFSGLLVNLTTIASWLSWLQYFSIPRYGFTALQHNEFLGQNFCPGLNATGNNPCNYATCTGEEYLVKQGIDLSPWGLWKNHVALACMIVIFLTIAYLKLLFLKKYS

[2] = po, mild hepatic impairment, single 60 mg oral dose
[3] = po, moderate hepatic impairment, single 60 mg oral dose
[4] = po, normal hepatic function, single 60 mg oral dose
[5] = po, severe hepatic impairment, single 60 mg oral dose
[6] = mild hepatic impairment vs normal hepatic function
[7] = mild hepatic impairment, single 60 mg oral dose
[8] = moderate hepatic impairment vs normal hepatic function
[9] = moderate hepatic impairment, single 60 mg oral dose
[10] = normal hepatic function, single 60 mg oral dose
[11] = severe hepatic impairment vs normal hepatic function
[12] = severe hepatic impairment, single 60 mg oral dose

Chain of OAT1 (Q4U2R8 whole entry): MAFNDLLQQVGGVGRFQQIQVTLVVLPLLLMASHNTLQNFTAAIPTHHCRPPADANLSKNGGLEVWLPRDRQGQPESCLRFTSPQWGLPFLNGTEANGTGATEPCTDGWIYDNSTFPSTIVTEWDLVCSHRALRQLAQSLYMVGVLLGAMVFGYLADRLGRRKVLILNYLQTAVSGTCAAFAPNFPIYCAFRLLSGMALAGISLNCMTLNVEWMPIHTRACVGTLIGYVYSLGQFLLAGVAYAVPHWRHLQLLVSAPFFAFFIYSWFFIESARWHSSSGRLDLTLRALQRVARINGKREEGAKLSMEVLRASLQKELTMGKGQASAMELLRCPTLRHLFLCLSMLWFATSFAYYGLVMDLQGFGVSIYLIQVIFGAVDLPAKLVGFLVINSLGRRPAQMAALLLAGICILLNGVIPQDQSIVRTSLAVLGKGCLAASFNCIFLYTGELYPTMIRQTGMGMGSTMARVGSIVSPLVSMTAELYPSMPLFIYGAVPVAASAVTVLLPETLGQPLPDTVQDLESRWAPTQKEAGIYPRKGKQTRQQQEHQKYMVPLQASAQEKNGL

With C[C@@H]1[C@H](c2c(F)ccc(F)c2F)C[C@H](NC(=O)c2cnc3c(c2)C[C@@]2(C3)C(=O)Nc3ncccc32)C(=O)N1CC(F)(F)F [atogepant, (3′S)-N-[(3S,5S,6R)-6-methyl-2-oxo-1-(2,2,2-trifluoroethyl)-5-(2,3,6-trifluorophenyl)piperidin-3-yl]-2′-oxo-1′,2′,5,7-tetrahydrospiro[cyclopenta[b]pyridine-6,3′-pyrrolo[2,3-b]pyridine]-3-carboxamide] the “substrate of OAT1” value (OAT1) was “substrate”, the AUC(0-t) ([1]; oral, mild hepatic impairment, read-out: AUC0-t Geometric Least Squares Mean, Test) was 3250 ng·h/mL and the AUC(0-inf) ([1]; oral, mild hepatic impairment, read-out: AUC0-∞ Geometric Least Squares Mean, Test) was 3270 ng·h/mL. For the same compound, the Cmax ([1]; oral, mild hepatic impairment, read-out: Cmax Geometric Least Squares Mean, Test) was 587 ng/mL, the AUC(0-t) ([1]; oral, moderate hepatic impairment, read-out: AUC0-t Geometric Least Squares Mean, Test) was 2980 ng·h/mL and the AUC(0-inf) ([1]; oral, moderate hepatic impairment, read-out: AUC0-∞ Geometric Least Squares Mean, Test) was 3030 ng·h/mL. For the same compound, the Cmax ([1]; oral, moderate hepatic impairment, read-out: Cmax Geometric Least Squares Mean, Test) was 475 ng/mL, the AUC(0-t) ([1]; oral, normal hepatic function, read-out: AUC0-t Geometric Least Squares Mean, Reference) was 2610 ng·h/mL and the AUC(0-inf) ([1]; oral, normal hepatic function, read-out: AUC0-∞ Geometric Least Squares Mean, Reference) was 2630 ng·h/mL. The Cmax ([1]; oral, normal hepatic function, read-out: Cmax Geometric Least Squares Mean, Reference) was 539 ng/mL, the AUC(0-t) ([1]; oral, severe hepatic impairment, read-out: AUC0-t Geometric Least Squares Mean, Test) was 3600 ng·h/mL and the AUC(0-inf) ([1]; oral, severe hepatic impairment, read-out: AUC0-∞ Geometric Least Squares Mean, Test) was 3630 ng·h/mL. It also gave a Cmax ([1]; oral, severe hepatic impairment, read-out: Cmax Geometric Least Squares Mean, Test) of 515 ng/mL, a Tmax ([1]; po, mild hepatic impairment vs normal hepatic function, read-out: difference in median Tmax) of 0 h and a half-life [1, 2] of 8.7 ± 4.06 h. The AUC(0-t) ([1]; po, mild hepatic impairment, single 60 mg oral dose, read-out: AUC0-t) was 3470 ± 1420 ng·h/mL, the AUC(0-inf) ([1]; po, mild hepatic impairment, single 60 mg oral dose, read-out: AUC0-∞) was 3500 ± 1430 ng·h/mL and the Cmax ([1]; po, mild hepatic impairment, single 60 mg oral dose, read-out: Cmax) was 666 ± 372 ng/mL. The Tmax ([1]; po, mild hepatic impairment, single 60 mg oral dose, read-out: Tmax, median (range)) was 1.76 h, the Vd/F [1, 2] was 249 ± 161 L and the Tmax ([1]; po, moderate hepatic impairment vs normal hepatic function, read-out: difference in median Tmax) was 0.25 h. It also gave a half-life [1, 3] of 11.9 ± 7.6 h, an AUC(0-t) ([1]; po, moderate hepatic impairment, single 60 mg oral dose, read-out: AUC0-t) of 3270 ± 1690 ng·h/mL and an AUC(0-inf) ([1]; po, moderate hepatic impairment, single 60 mg oral dose, read-out: AUC0-∞) of 3310 ± 1680 ng·h/mL. It also gave a Cmax ([1]; po, moderate hepatic impairment, single 60 mg oral dose, read-out: Cmax) of 529 ± 227 ng/mL, a Tmax ([1]; po, moderate hepatic impairment, single 60 mg oral dose, read-out: Tmax, median (range)) of 1.5 h and a Vd/F [1, 3] of 404 ± 406 L. The half-life [1, 4] was 9.4 ± 3.24 h, the AUC(0-t) ([1]; po, normal hepatic function, single 60 mg oral dose, read-out: AUC0-t) was 2760 ± 919 ng·h/mL and the AUC(0-inf) ([1]; po, normal hepatic function, single 60 mg oral dose, read-out: AUC0-∞) was 2780 ± 924 ng·h/mL. For the same compound, the Cmax ([1]; po, normal hepatic function, single 60 mg oral dose, read-out: Cmax) was 589 ± 248 ng/mL, the Tmax ([1]; po, normal hepatic function, single 60 mg oral dose, read-out: Tmax, median (range)) was 1.75 h and the Vd/F [1, 4] was 301 ± 77 L. For the same compound, the Tmax ([1]; po, severe hepatic impairment vs normal hepatic function, read-out: difference in median Tmax) was 0.75 h, the half-life [1, 5] was 7.54 ± 2.95 h and the AUC(0-t) ([1]; po, severe hepatic impairment, single 60 mg oral dose, read-out: AUC0-t) was 3800 ± 1400 ng·h/mL. For the same compound, the AUC(0-inf) ([1]; po, severe hepatic impairment, single 60 mg oral dose, read-out: AUC0-∞) was 3840 ± 1440 ng·h/mL, the Cmax ([1]; po, severe hepatic impairment, single 60 mg oral dose, read-out: Cmax) was 525 ± 197 ng/mL and the Tmax ([1]; po, severe hepatic impairment, single 60 mg oral dose, read-out: Tmax, median (range)) was 1 h. The Vd/F [1, 5] was 177 ± 47.5 L, the “higher AUC (total atogepant exposure increase)” value ([1]; mild hepatic impairment (Child-Pugh Class A) vs normal hepatic function) was 24% and the “AUC0-t Ratio of Geometric Means Test/Reference” value [1, 6] was 124.40. For the same compound, the “AUC0-∞ Ratio of Geometric Means Test/Reference” value [1, 6] was 124.31, the “Cmax Ratio of Geometric Means Test/Reference” value [1, 6] was 108.97 and the “change in maximum plasma concentration” value [1, 6] was “+9%”. For the same compound, the “higher Cmax” value [1, 6] was 9%, the AUC % [1, 7] was 0.73 ± 0.42% and the CL/F [1, 7] was 19.42 ± 6.60 L/h. For the same compound, the λz [1, 7] was 0.0906 ± 0.0300 h⁻¹, the “change in the PK of atogepant” value ([1]; mild, moderate, or severe hepatic impairment) was “no clinically relevant change” and the “higher AUC (total atogepant exposure increase)” value ([1]; moderate hepatic impairment (Child-Pugh Class B) vs normal hepatic function) was 15%. For the same compound, the “AUC0-t Ratio of Geometric Means Test/Reference” value [1, 8] was 113.96, the “AUC0-∞ Ratio of Geometric Means Test/Reference” value [1, 8] was 115.00 and the “Cmax Ratio of Geometric Means Test/Reference” value [1, 8] was 88.17. For the same compound, the “change in maximum plasma concentration” value [1, 8] was −12%, the “lower Cmax” value [1, 8] was 12% and the AUC % [1, 9] was 1.70 ± 1.44%. It also gave a CL/F [1, 9] of 21.33 ± 8.06 L/h, a λz [1, 9] of 0.0781 ± 0.0431 h⁻¹ and an AUC % [1, 10] of 0.81 ± 0.23%. The CL/F [1, 10] was 24.20 ± 9.42 L/h, the λz [1, 10] was 0.0819 ± 0.0289 h⁻¹ and the “increase in AUC (total atogepant exposure increase)” value ([1]; severe hepatic impairment (Child-Pugh Class C) vs normal hepatic function) was 38%. For the same compound, the “AUC0-t Ratio of Geometric Means Test/Reference” value [1, 11] was 137.88, the “AUC0-∞ Ratio of Geometric Means Test/Reference” value [1, 11] was 137.97 and the “Cmax Ratio of Geometric Means Test/Reference” value [1, 11] was 95.71. The “change in maximum plasma concentration” value [1, 11] was −4%, the “decrease in Cmax” value [1, 11] was 4% and the AUC % [1, 12] was 0.87 ± 0.65%. The CL/F [1, 12] was 17.33 ± 5.40 L/h, the λz [1, 12] was 0.0998 ± 0.0242 h⁻¹ and the “inhibition of BCRP” value (BCRP) was “not an inhibitor”.
